From PubChem BioAssay (NCI)
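All cell lines were grown in 96-well plates and treated with compound for 48 hours. TGI is the concentration that stops growth completely.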

What was measured:
Assay in all cases: NCI anticancer screen, dose series, 48 h
NCI/ADR-RES ovarian = tested on: NCI/ADR-RES ovarian
KM12 colon = tested on: KM12 colon
CAKI-1 renal = tested on: CAKI-1 renal
UACC-62 melanoma = tested on: UACC-62 melanoma
HCT-15 colon = tested on: HCT-15 colon
OVCAR-8 ovarian = tested on: OVCAR-8 ovarian
OVCAR-4 ovarian = tested on: OVCAR-4 ovarian
SW-620 colon = tested on: SW-620 colon
RPMI-8226 leukemia = tested on: RPMI-8226 leukemia
UO-31 renal = tested on: UO-31 renal
HCT-116 colon = tested on: HCT-116 colon
DU-145 prostate = tested on: DU-145 prostate
SNB-19 CNS = tested on: SNB-19 CNS
SF-295 CNS = tested on: SF-295 CNS
U251 CNS = tested on: U251 CNS
A549 NSCLC = tested on: A549 NSCLC
HS 578T breast = tested on: HS 578T breast
RXF 393 renal = tested on: RXF 393 renal
UACC-257 melanoma = tested on: UACC-257 melanoma
SR leukemia = tested on: SR leukemia
ACHN renal = tested on: ACHN renal
A498 renal = tested on: A498 renal
MDA-N = tested on: MDA-N
MDA-MB-435 = tested on: MDA-MB-435
LOX IMVI melanoma = tested on: LOX IMVI melanoma
T-47D breast = tested on: T-47D breast
COLO 205 colon = tested on: COLO 205 colon
SK-MEL-2 melanoma = tested on: SK-MEL-2 melanoma
HOP-92 NSCLC = tested on: HOP-92 NSCLC
EKVX NSCLC = tested on: EKVX NSCLC
HT29 colon = tested on: HT29 colon
BT-549 breast = tested on: BT-549 breast
SNB-75 CNS = tested on: SNB-75 CNS
MCF7 breast = tested on: MCF7 breast
NCI-H460 lung = tested on: NCI-H460 lung
K-562 leukemia = tested on: K-562 leukemia
OVCAR-3 ovarian = tested on: OVCAR-3 ovarian
IGROV1 ovarian = tested on: IGROV1 ovarian
SK-MEL-28 melanoma = tested on: SK-MEL-28 melanoma
OVCAR-5 ovarian = tested on: OVCAR-5 ovarian
NCI-H23 lung = tested on: NCI-H23 lung
SN12C renal = tested on: SN12C renal
SK-MEL-5 melanoma = tested on: SK-MEL-5 melanoma
786-0 renal = tested on: 786-0 renal
MDA-MB-231 breast = tested on: MDA-MB-231 breast
HOP-62 NSCLC = tested on: HOP-62 NSCLC
NCI-H522 lung = tested on: NCI-H522 lung
SF-539 CNS = tested on: SF-539 CNS
SF-268 CNS = tested on: SF-268 CNS
CCRF-CEM leukemia = tested on: CCRF-CEM leukemia
TK-10 renal = tested on: TK-10 renal
SK-OV-3 ovarian = tested on: SK-OV-3 ovarian
MOLT-4 leukemia = tested on: MOLT-4 leukemia
HL-60(TB) leukemia = tested on: HL-60(TB) leukemia
PC-3 prostate = tested on: PC-3 prostate
MALME-3M melanoma = tested on: MALME-3M melanoma
M14 melanoma = tested on: M14 melanoma
HCC-2998 colon = tested on: HCC-2998 colon
NCI-H226 lung = tested on: NCI-H226 lung

Measured: TGI

NCCc1nc(-c2nc(C(=O)O)cs2)cs1
> 100 µM: NCI/ADR-RES ovarian | KM12 colon | CAKI-1 renal | UACC-62 melanoma | HCT-15 colon | OVCAR-8 ovarian | OVCAR-4 ovarian | SW-620 colon | RPMI-8226 leukemia | UO-31 renal | HCT-116 colon | DU-145 prostate | SNB-19 CNS | SF-295 CNS | U251 CNS | A549 NSCLC | HS 578T breast | RXF 393 renal | UACC-257 melanoma | SR leukemia | ACHN renal | A498 renal | MDA-N | MDA-MB-435 | LOX IMVI melanoma | T-47D breast | COLO 205 colon | SK-MEL-2 melanoma | HOP-92 NSCLC | EKVX NSCLC | HT29 colon | BT-549 breast | SNB-75 CNS | MCF7 breast | NCI-H460 lung | K-562 leukemia | OVCAR-3 ovarian | IGROV1 ovarian | SK-MEL-28 melanoma | OVCAR-5 ovarian | NCI-H23 lung | SN12C renal | SK-MEL-5 melanoma | 786-0 renal | MDA-MB-231 breast | HOP-62 NSCLC | NCI-H522 lung | SF-539 CNS | SF-268 CNS | CCRF-CEM leukemia | TK-10 renal | SK-OV-3 ovarian | MOLT-4 leukemia | HL-60(TB) leukemia | PC-3 prostate | MALME-3M melanoma | M14 melanoma

Nc1nc(Cl)cc(NCC2(CO)COC2)n1
> 100 µM: NCI/ADR-RES ovarian | KM12 colon | CAKI-1 renal | UACC-62 melanoma | HCT-15 colon | OVCAR-8 ovarian | OVCAR-4 ovarian | SW-620 colon | RPMI-8226 leukemia | UO-31 renal | HCT-116 colon | DU-145 prostate | SF-295 CNS | U251 CNS | A549 NSCLC | HS 578T breast | RXF 393 renal | UACC-257 melanoma | SR leukemia | ACHN renal | A498 renal | MDA-N | MDA-MB-435 | LOX IMVI melanoma | T-47D breast | COLO 205 colon | SK-MEL-2 melanoma | EKVX NSCLC | HT29 colon | BT-549 breast | SNB-75 CNS | MCF7 breast | NCI-H460 lung | K-562 leukemia | OVCAR-3 ovarian | IGROV1 ovarian | SK-MEL-28 melanoma | OVCAR-5 ovarian | NCI-H23 lung | SN12C renal | SK-MEL-5 melanoma | 786-0 renal | MDA-MB-231 breast | HOP-62 NSCLC | HCC-2998 colon | NCI-H522 lung | NCI-H226 lung | SF-539 CNS | SF-268 CNS | CCRF-CEM leukemia | TK-10 renal | SK-OV-3 ovarian | HL-60(TB) leukemia | PC-3 prostate | MALME-3M melanoma
